In one data set the target is PARP1 enzyme (Homo sapiens (Human), UniProt P09874). Briefly: PARP1 enzyme activity test (chemiluminescence kit, BPS Bioscience). In kind it is biochemical. Conditions: read-out: PARP-1 enzyme activity IC50.
The subject of another data set is MDA-MB-436 cells. The data set can be described thus: MDA-MB-436 cell activity test (CellTiter-Glo, 7 days). In kind it is cell-based, Human. Conditions: for IC50: 7 days incubation, read-out: MDA-MB-436 cell inhibitory activity IC50. How it is done: On day 1, the cells in the exponential growth phase were collected, and the cell suspension was adjusted to 4000 cells/135 μL with the culture medium. 135 μL of the cell suspension was added to each well of a 96-well cell culture plate and incubated overnight. On day 2, compounds at different concentrations were added, and the plate was placed in the incubator and incubated for 7 days. After the incubation was completed, according to operation instructions for a CellTiter-Glo kit (Promega, G7573), 75 μL of CTG solution, which was already pre-melted and equilibrated to room temperature, was added to each well, and the mixture was uniformly mixed for 2 min using a microplate shaker. The plate was placed at room temperature for 10 min, and then […] were measured using an Envision2104 plate reader (PerkinElmer). […] The IC50 value was calculated using GraphPad Prism software.
(In ATP-based viability assays light output follows the ATP content of the culture.)

The test system of data set [1] is MDA-MB-436 subcutaneous transplanted tumor. The data set can be described thus: Mouse MDA-MB-436 subcutaneous in vivo transplanted tumor model. Conditions: Day 0-Day 10: 1 mg/kg, Day 11-Day 28: 0.1 mg/kg, once a day.
Description: Human breast cancer MDA-MB-436 cells were placed in Leibovitz's L-15 medium (supplemented with 10 μg/mL insulin, 16 μg/mL glutathione, 10% fetal bovine serum and 1% penicillin-streptomycin solution) and cultured at 37° C. Conventional digestion treatment with trypsin was performed twice a week for passage. When the cell saturation was 80%-90%, and the number reached the requirement, the cells were harvested, counted, and inoculated. BALB/c nude mice (from Beijing Vital River Laboratory Animal Technology Co., Ltd.) were subcutaneously inoculated with 0.2 mL (10×10^6) of MDA-MB-436 cells (plus matrigel, with the volume ratio of 1:1) on the right back. When the average tumor volume reached about 180 mms, grouping and administration were performed (marked as Day 0). […] The administration frequency was once a day, the administration cycle was 29 days, and the drug withdrawal observation period was set to 14 days. After grouping, the tumor diameter was measured twice a week with a vernier caliper. The formula for calculating the tumor volume was: V=0.5×a×b^2, where a and b represented the long and short diameters of the tumor, respectively.

Structures are written as SMILES. Read-outs that look alike come from different tables or passages of the source.

PARP1 enzyme, sequence (P09874 whole entry): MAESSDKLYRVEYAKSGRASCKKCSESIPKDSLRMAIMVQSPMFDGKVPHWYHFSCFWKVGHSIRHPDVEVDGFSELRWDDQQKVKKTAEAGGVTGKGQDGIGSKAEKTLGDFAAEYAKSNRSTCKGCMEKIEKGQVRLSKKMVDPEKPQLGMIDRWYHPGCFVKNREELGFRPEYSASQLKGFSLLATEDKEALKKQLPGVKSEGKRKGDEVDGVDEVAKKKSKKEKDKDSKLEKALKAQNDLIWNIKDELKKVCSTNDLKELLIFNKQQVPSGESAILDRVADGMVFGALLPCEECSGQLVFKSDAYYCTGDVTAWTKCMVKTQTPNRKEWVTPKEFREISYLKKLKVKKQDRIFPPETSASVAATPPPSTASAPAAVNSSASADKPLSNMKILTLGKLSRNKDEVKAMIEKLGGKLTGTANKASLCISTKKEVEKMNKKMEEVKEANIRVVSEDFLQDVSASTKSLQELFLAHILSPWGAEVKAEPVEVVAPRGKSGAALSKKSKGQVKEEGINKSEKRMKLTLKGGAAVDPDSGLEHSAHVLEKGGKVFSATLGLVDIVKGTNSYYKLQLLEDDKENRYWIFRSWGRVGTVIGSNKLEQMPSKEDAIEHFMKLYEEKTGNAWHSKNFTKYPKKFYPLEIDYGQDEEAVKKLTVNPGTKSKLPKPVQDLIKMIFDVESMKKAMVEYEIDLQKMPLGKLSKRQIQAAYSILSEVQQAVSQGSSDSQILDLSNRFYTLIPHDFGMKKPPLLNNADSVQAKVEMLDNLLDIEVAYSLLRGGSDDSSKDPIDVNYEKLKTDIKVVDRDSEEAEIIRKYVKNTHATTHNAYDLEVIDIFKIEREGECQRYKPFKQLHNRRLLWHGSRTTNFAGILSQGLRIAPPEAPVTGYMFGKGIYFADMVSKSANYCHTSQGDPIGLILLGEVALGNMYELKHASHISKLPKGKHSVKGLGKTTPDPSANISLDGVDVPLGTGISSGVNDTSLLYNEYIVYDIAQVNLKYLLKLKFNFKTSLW
Description for PARP1 enzyme: PARP1 chemical fluorescence detection kit was purchased from BPS Bioscience. The histone solution in the kit was diluted 5× with 1×PBS, and 25 μL of the diluted histone solution was added to a microwell plate and incubated overnight at 4° C. After the incubation, the plate was washed three times with PBST (0.05% Tween-20). 100 μL of the blocking solution was added to the microwell plate and incubated at 25° C. for 90 minutes. After the incubation was completed, the plate was washed three times with PBST. 2.5 μL of compounds at different concentrations diluted in test buffer and 12.5 μL of substrate mixed solution (1.25 μL 10×PARP test buffer; 1.25 μL 10×PARP test mixed solution; 2.5 μL Activated DNA, 7.5 μL double-distilled water) were added to the microwell plate. The PARP1 enzyme was diluted to 2 ng/μL, 10 μL of the diluent was added to the microwell plate, and the reaction system was incubated at 25° C. for 60 minutes.
After the incubation was completed, the plate was washed three times with PBST. Streptavidin-HRP was diluted 50× with a blocking solution, and 25 μL of the diluent was added to the microwell plate and incubated at 25° C. for 30 minutes. After the incubation, the plate was washed three times with PBST. ELISA ECL substrate A and substrate B were mixed at a ratio of 1:1 (v/v), 50 μL of the mixture was added to the microwell plate, and the chemiluminescence value was read.
Curve fitting was performed by four parameters (log(inhibitor) vs. response—Variable slope) using GraphPad Prism software, and the IC50 value was calculated.

As usually defined, the IC50 is the concentration that inhibits the measured activity by half. With `COc1cc2ncc(CN3CCN(c4ccc(C(=O)NC5CN(c6ccccc6)C5)nc4)CC3)cc2[nH]c1=O` [Compound 46], the IC50 on PARP1 enzyme stood at 0.56 nM.

For `CCc1cc2ncc(CN3CCN(c4ccc(NC(=O)[C@H]5C[C@H]5F)nc4)CC3)cc2[nH]c1=O` [Compound 34], the IC50 at PARP1 enzyme amounted to 0.66 nM. For `CCC1=CC2N=CC(CN3CCN(c4ccc(C(=O)C[C@@H]5C[C@@H]5F)nc4)CC3)=CC2CC1=O` (stereo partly drawn) [Compound 11], the IC50 at PARP1 enzyme was 0.54 nM; in the data set on MDA-MB-436 cells, 6 nM. Also, the “Max inh. % 10 μM” value in the data set with MDA-MB-436 cells (10 μM, MDA-MB-436 cells) was determined as 85.2%. `CCc1cc2ncc(CN3CCN(c4ccc(C(=O)NC5C[C@H]5F)nc4)CC3)cc2[nH]c1=O` (stereo partly drawn) [Compound 41]: the 50% inhibitory concentration (IC50) with MDA-MB-436 cells (Homo sapiens, MDA-MB-436, 168 h) was 2.3 nM. Moreover, the inhibition at 10 µM with MDA-MB-436 cells (Homo sapiens, 10 μM, MDA-MB-436 cells, read-out: Max inh. % 10 μM) came out at 92.1%.

`CCc1cc2ncc(CN3CCN(c4ccc(C(=O)NC5CC5)nc4)CC3)cc2[nH]c1=O` [Compound 4]: in data set [1], the “body weight of the animals” value was “no significant decrease”. On to `CCc1cc2ncc(CN3CCN(c4ccc(NC(=O)[C@@H]5C[C@H]5F)nc4)CC3)cc2[nH]c1=O` [Compound 35], for which, at PARP1 enzyme, the IC50 was 0.97 nM.

These data come from US20260027108A1, “PHARMACEUTICAL COMPOSITION OF HETEROARYL DERIVATIVE AND MEDICAL USE THEREOF” (Haisco Pharmaceutical Group Co., Ltd., priority 2022, published 2026).
